Source: publication PMC4833932, “Cytotoxicity and cell cycle arrest induced by andrographolide lead to programmed cell death of MDA-MB-231 breast cancer cell line” (Journal of Biomedical Science, 2016)
Where “and” joins values, the source holds several entries; their conditions need not be identical. Equal values may be shown once.

Legend:
[1] = system: MCF-10A normal human breast epithelial immortalized cell line; assay: In vitro cytotoxicity (MTT) assay; type: cell-based; settings: for IC50: Homo sapiens, MCF-10A, MTT
Protocol: (§1) The effect of andrographolide on cell viability was measured by MTT assay following the method by Mosmann. Briefly, the cells (1 × 10^5 cells per ml) were seeded in a 96 well micro titer plate (100 μl per well) with replications. Treatment was conducted for 24 and 48 h with different concentrations (0, 5, 7.5, 15, 30, 45, 60, 75 and 100 μM) of andrographolide. After incubation, 20 μl of 5 mg/ml MTT stock solution was added to each well and incubated for 4 h at 37 °C. The obtained formazan crystals were solubilized with DMSO and the absorbance was measured at 570 nm using a microplate reader (SpectraMax M5, Molecular Devices, USA). Cell viability (%) has been shown as a ratio of absorbance (A570) in treated cells to absorbance in control cells (0.1 % DMSO) (A570). The IC50 was calculated as the concentration of sample needed to reduce 50 % of the absorbance in comparison to the DMSO-treated control. Percent cell viability was calculated following the equation: Cellviability%=A570Sample/A570ControlDMSO×100

MCF-7 = assay: In vitro cytotoxicity (MTT) assay; type: cell-based; settings: Homo sapiens
Protocol: as §1

T-47D = assay: In vitro cytotoxicity (MTT) assay; type: cell-based; settings: Homo sapiens, T47D
Protocol: as §1

MDA-MB-231 cells [2] = assay: Cell cycle analysis by flow cytometry (PI); type: cell-based, human; settings: 30 μM
Protocol: In order to study the stages of the cell cycle affected by andrographolide, flow cytometry analysis of cell cycle was carried out. Cells were seeded in a 6-well tissue culture plate at an initial density of 2.5 × 10^5 cells per well in the presence of andrographolide (30 μM) or vehicle (DMSO) for 24, 36 and 48 h. The treatment medium and the attached cells were collected after trypsinisation and centrifugation at 1000 × g. Cells were then fixed with 70 % ethanol at 4 °C overnight. The resulted pellets were resuspended in PBS having 100 μg/ml RNAse A (Sigma-Aldrich, USA) and 50 μg/ml PI, and then kept in dark at 25 °C for 30 min. Cell cycle phase distribution were monitored on the BD FACSVerse™ (Becton Dickinson, USA) and analyzed by using FACSuite™ software. A total of 10,000 events were recorded.

MCF-7 cells = assay: Annexin V-FITC/PI flow cytometry (apoptosis); type: cell-based, human; settings: MCF-7, IC50 concentration, 48 h
Protocol: (§2) In order to examine phosphatidyl serine externalization from inner to the outer cell membrane, a characteristic feature of apoptotic cell death and to quantify the percentage of apoptotic cell death, cultured MDA-MB-231 cells (1 × 10^6) were treated with 50 % inhibitory concentration (30 μM) of andrographolide for 24 h, 36 h and 48 h. Cells were resuspended in 1X binding buffer, labelled with fluorescein isothiocyanate (FITC)-conjugated Annexin V (200 μg/ml) and PI (30 μg/ml), incubated for 15 min at room temperature in the dark and analyzed by flow cytometry using BD FACSVerse™ (Becton Dickinson, USA). Data were analyzed using FACSuite™ software. For each set, total of 10,000 events were recorded. Similar experiment was also performed using MCF-7 cells treated with andrographolide for 48 h.

MDA-MB-231 cells [3] = assay: Annexin V-FITC/PI flow cytometry (apoptosis); type: cell-based, human; settings: 30 μM
Protocol: as §2

MDA-MB-231 = assay: Cellular ROS level (DCF-DA); type: cell-based, human; settings: 15, 30, 45 and 60 μM, 12-48 h
Protocol: To estimate intracellular ROS level, MDA-MB-231 (2 × 10^4 cells per well) were treated with andrographolide (15, 30, 45 and 60 μM) for 12–48 h and were harvested by centrifugation for the assay. The cell suspension (200 μl, containing 1 × 10^5 cells per ml) was mixed to PBS (800 μl) and 10 μM 2ʹ, 7ʹ-dichlorofluorescein diacetate (DCF-DA) and kept at 37 °C for 30 min in the dark. 25 μM H2O2 was used for positive control. The intracellular ROS level was measured by determining the production of H2O2 using a spectrofluorometer (excitation, 488 nm; emission, 515 nm). Another set of experiment was similarly performed where MDA-MB-231 cells were pre-treated with 3 mM NAC for 1 h followed by without or with andrographolide (30 μM) treatment. Same experiment was also performed using MCF-7 cells.

MDA-MB-231 cells [4] = assay: Mitochondrial membrane potential (Rhodamine 123); type: cell-based, human; settings: 15-60 μM, 24 and 48 h
Protocol: The loss of mitochondrial membrane potential (∆ψm) (MMP) is a primary event leading to phosphatidyl serine externalization, which corresponds with the activation of caspase. MMP was quantified by the incorporation of a fluorescent dye Rhodamine 123 [25]. Cells (1 × 10^4 per well) were incubated with different concentrations (15, 30, 45 or 60 μM) of andrographolide in the absence or presence of NAC for 24 and 48 h. Positive control was obtained with a mitochondrial uncoupling agent, carbonyl cyanide m-chloro-phenylhydrazone (CCCP; 20 μM) for 30 min. The treated cells were washed twice with chilled PBS before incubation with Rhodamine 123 (5 μg/ml) and kept at 37 °C for 15 min. The fluorescence intensity was detected using an emission filter of 535 nm. Same experiment was also performed using MCF-7 cells.

caspase-9 = assay: Caspase activity assay (fluorometric, LEHD-AFC) in MDA-MB-231 cells; type: cell-based, human; settings: 0-60 μM, 24 h
Protocol: MDA-MB-231 cells (1 × 10^5 cells per ml) were incubated with different concentrations of andrographolide (0, 15, 30, 45 and 60 μM) for 24 h and then centrifuged to detect caspase-3 and caspase-9 activation using caspase fluoremetric protease assay kit following manufacturer’s instructions. Briefly, cells were lysed in RIPA buffer supplemented with protease inhibitor cocktail and 10 μl lysate were diluted with 10 μl substrate buffer (1:1) containing 100 μM each of fluorogenic substrate, DEVD-AFC and LEHD-AFC for caspase-3 and caspase-9 respectively, and was then incubated for 90 min at 37 °C. Reactions were stopped using 0.2 mM sodium phosphate buffer (pH 7.5) and fluorescence was quantified by a spectrofluorometer (excitation, 405 nm; emission, 505 nm). Experiment was also performed using MCF-7 cells.

caspase-7 = assay: Caspase activity assay in MCF-7 cells; type: cell-based, human; settings: MCF-7, 0-80 μM, 24 h
male mice = system: male mice; set-up: method as in PMID 2228074; settings: intraperitoneal route; cited from earlier work

## C=C1CC[C@@H]2[C@](C)(CO)[C@H](O)CC[C@@]2(C)[C@@H]1C/C=C1/C(=O)OC[C@H]1O [andrographolide]
[1]; 48 h, MCF-10A vs MDA-MB-231
  IC50 at 48 h for MCF-10A higher than that for MDA-MB-231 cells: ~3.5 fold
[1]; 24 h
  IC50: 138 µM
[1]; 48 h
  IC50: 106 µM
[1]; abstract, quantity not named (presumably viability)
  treatment did not affect normal breast epithelial cells, MCF-10A: > 80%
MCF-7; MCF7, MCF-7, 24 h
  IC50: 61.1 µM
MCF-7; MCF7, MCF-7, 48 h
  IC50: 36.9 µM
T-47D; 24 h
  IC50: 118 µM
T-47D; 48 h
  IC50: 72.6 µM
MDA-MB-231 cells [2]; 24 h
  decrease in the cell number at the G1/G0 phase over the control: 24.75 ± 0.5%
  increase in S population over the untreated control: 9.91 ± 0.3%
MDA-MB-231 cells [2]; 36 h
  decrease in the cell number at the G1/G0 phase over the control: 28.86 ± 0.7%
  increase in S population over the untreated control: 14.21 ± 0.2%
MDA-MB-231 cells [2]; 48 h
  decrease in the cell number at the G1/G0 phase over the control: 33.53 ± 1.1%
MCF-7 cells
  percentage of apoptotic cells: 41.17%
MDA-MB-231 cells [3]; 24 h
  early apoptotic cells (annexin V+ and PI-): 16.76 ± 0.51%
  late apoptotic cells (annexin V+ and PI+): 32.2 ± 2.2% and 32%
MDA-MB-231 cells [3]; 36 h
  early apoptotic cells (annexin V+ and PI-): 12.23 ± 0.29%
  late apoptotic cells (annexin V+ and PI+): 60.06 ± 0.6%
MDA-MB-231 cells [3]; 48 h
  early apoptotic cells (annexin V+ and PI-): 5.89 ± 0.67%
MDA-MB-231 cells [3]; all the treated conditions (24, 36, 48 h)
  cell population in necrotic phase: < 1%
MDA-MB-231
  ROS generation (DCF fluorescence): increasing ROS generation with longer exposure and elevated dose
MDA-MB-231 cells [4]
  MMP level: significant (P < 0.01) drop of MMP level
caspase-9
  activation of caspase-9: gradual dose-dependent activation
caspase-7
  caspase-7 (effector caspase) activation: activation in a dose-dependent manner
Male mice
  LD50: 11460 mg/kg
